From ChEMBL document CHEMBL5120841, “Discovery of novel pleuromutilin derivatives as potent antibacterial agents” (2022)
Values after ≈ are worked out from the molar mass of the structure shown. Active and inactive are the calls of the source. The rule behind the calls is not given here.

Tests used:
[1] = test system: Enterococcus faecalis; assay: Antibacterial activity against Enterococcus faecalis assessed as bacterial growth inhibition incubated for 18 to 24 hrs by microtiter dilution method; type: functional; conditions: time 18-24 hrs
[2] = test system: Staphylococcus aureus; assay: Antibacterial activity against methicillin-resistant Staphylococcus aureus BNCC 337371 infected in Kunming mouse lung assessed as reduction on bacterial growth at 40 mg/kg,ip dosed measured after 7 days by 10-fold dilution method; type: functional; conditions: time 7 day
[3] = test system: Bacillus subtilis; assay: Antibacterial activity against Bacillus subtilis assessed as bacterial growth inhibition incubated for 18 to 24 hrs by microtiter dilution method; type: functional; conditions: time 18-24 hrs
[4] = test system: Staphylococcus epidermidis; assay: Antibacterial activity against methicillin-resistant Staphylococcus epidermidis ATCC 51625 assessed as bacterial growth inhibition incubated for 18 to 24 hrs by microtiter dilution method; type: functional; conditions: time 18-24 hrs
[5] = test system: Staphylococcus aureus; assay: Antibacterial activity against methicillin-resistant Staphylococcus aureus BNCC 337371 infected in Kunming mouse lung assessed as reduction on lymphocyte infiltration at 40 mg/kg,ip measured after 7 days by hematoxylin and eosin staining based light microscopic analysis; type: functional, organism-based; conditions: time 7.0 day
[6] = test system: Staphylococcus aureus; assay: Antibacterial activity against Staphylococcus aureus ATCC 25923 assessed as bacterial growth inhibition incubated for 18 to 24 hrs by microtiter dilution method; type: functional; conditions: time 18-24 hrs
[7] = test system: Escherichia coli; assay: Antibacterial activity against Escherichia coli CICC 10389 assessed as bacterial growth inhibition incubated for 18 to 24 hrs by microtiter dilution method; type: functional; conditions: time 18-24 hrs
[8] = test system: Staphylococcus aureus; assay: Antibacterial activity against methicillin-resistant Staphylococcus aureus BNCC 337371 infected in Kunming mouse assessed as reduction on bacterial growth by measuring survival rate at ip dosed measured after 7 days by Bliss method; type: functional; conditions: BNCC 337371, 168 h, time 7 day
[9] = test system: Staphylococcus aureus; assay: Antibacterial activity against methicillin-resistant Staphylococcus aureus BNCC 337371 assessed as bacterial growth inhibition incubated for 18 to 24 hrs by microtiter dilution method; type: functional; conditions: time 18-24 hrs
[10] = test system: Staphylococcus aureus; assay: Antibacterial activity against Staphylococcus aureus ATCC 25923 assessed as reduction on bacterial count at 6X MIC incubated for 24 hrs by time killing assay; type: functional
[11] = test system: Staphylococcus aureus; assay: Antibacterial activity against methicillin-resistant Staphylococcus aureus BNCC 337371 infected in Kunming mouse lung assessed as reduction on lymphocyte infiltration at 15 mg/kg,ip measured after 7 days by hematoxylin and eosin staining based light microscopic analysis; type: functional, organism-based; conditions: time 7.0 day
[12] = test system: Staphylococcus aureus; assay: Antibacterial activity against methicillin-resistant Staphylococcus aureus BNCC 337371 infected in Kunming mouse liver assessed as reduction on bacterial growth at 40 mg/kg,ip dosed measured after 7 days by 10-fold dilution method; type: functional, organism-based; conditions: time 7.0 day
[13] = test system: Staphylococcus aureus; assay: Antibacterial activity against methicillin-resistant Staphylococcus aureus BNCC 337371 infected in Kunming mouse lung assessed as reduction on neutrophil infiltration at 15 mg/kg,ip measured after 7 days by hematoxylin and eosin staining based light microscopic analysis; type: functional, organism-based; conditions: time 7.0 day
[14] = test system: Staphylococcus aureus; assay: Antibacterial activity against methicillin-resistant Staphylococcus aureus BNCC 337371 infected in Kunming mouse lung assessed as reduction on alveolar diaphragm thickening at 40 mg/kg,ip measured after 7 days by hematoxylin and eosin staining based light microscopic analysis; type: functional, organism-based; conditions: time 7.0 day
[15] = test system: Staphylococcus aureus; assay: Antibacterial activity against methicillin-resistant Staphylococcus aureus BNCC 337371 infected in Kunming mouse lung assessed as reduction on neutrophil infiltration at 40 mg/kg,ip measured after 7 days by hematoxylin and eosin staining based light microscopic analysis; type: functional, organism-based; conditions: time 7.0 day
[16] = test system: Staphylococcus aureus; assay: Antibacterial activity against methicillin-resistant Staphylococcus aureus BNCC 337371 infected in Kunming mouse lung assessed as reduction on bacterial growth at 15 mg/kg,ip dosed measured after 7 days by 10-fold dilution method; type: functional; conditions: time 7 day
[17] = test system: Staphylococcus aureus; assay: Antibacterial activity against methicillin-resistant Staphylococcus aureus BNCC 337371 infected in Kunming mouse lung assessed as reduction on alveolar diaphragm thickening at 15 mg/kg,ip measured after 7 days by hematoxylin and eosin staining based light microscopic analysis; type: functional, organism-based; conditions: time 7.0 day
[18] = test system: Staphylococcus aureus; assay: Antibacterial activity against methicillin-resistant Staphylococcus aureus BNCC 337371 assessed as reduction on bacterial count at 6X MIC incubated for 24 hrs by time killing assay; type: functional
[19] = test system: Staphylococcus aureus; assay: Antibacterial activity against methicillin-resistant Staphylococcus aureus BNCC 337371 infected in Kunming mouse kidney assessed as reduction on bacterial growth at 40 mg/kg,ip dosed measured after 7 days by 10-fold dilution method; type: functional; conditions: time 7 day

For C=C[C@]1(C)C[C@@H](OC(=O)CSc2nc(C)c(C(=O)OCC)c(C)n2)[C@]2(C)[C@H](C)CC[C@]3(CCC(=O)[C@H]32)[C@@H](C)[C@@H]1O, which MIC [1] is on record?
The MIC was > 16 µg/mL.

And the Activity [2]?
Its Activity is 4.95 log10CFU/ml.

And the MIC [3]?
Its MIC is 4 µg/mL (≈ 6.98 µM).

And the MIC [4]?
Its MIC is ≤ 0.0156 µg/mL.

And the Activity [5]?
The Activity was “Active”.

What about the MIC [6] of the same molecule?
The MIC was ≤ 0.0156 µg/mL.

What about the MIC [7] of the same molecule?
The MIC was > 16 µg/mL.

What about the ED50 [8] of the same molecule?
Its ED50 is 16.1 mg/kg.

And the MIC [9]?
The MIC was ≤ 0.0156 µg/mL.

And the Activity [10]?
The Activity was 3.62 log10CFU/ml.

What about the Activity [11] of the same molecule?
Its Activity is “Active”.

And the Activity [12]?
The Activity was “Active”.

And the Activity [13]?
The Activity was “Active”.

What about the Activity [14] of the same molecule?
The Activity was “Active”.

What about the Activity [15] of the same molecule?
Its Activity is “Active”.

And the Activity [16]?
The Activity was 2.97 log10CFU/ml.

What about the Activity [17] of the same molecule?
The Activity was “Active”.

And the Activity [18]?
Its Activity is 2.44 log10CFU/ml.

What about the Activity [19] of the same molecule?
The Activity was 3.24 log10CFU/ml.
